Results from PMC8958505, “Discovery of Potential Neuroprotective Agents against Paclitaxel-Induced Peripheral Neuropathy” (Journal of Medicinal Chemistry, 2022).
Structures can show the parent of a compound that is named as a salt. Where two headings read alike, the source gives them in different places.

Experiments:
primary cortical neurons [1] = assay: Synaptogenesis assay of primary cortical neurons (image-based HCS) against paclitaxel-induced neurotoxicity; type: cell-based, mouse; settings: Mus musculus, Primary cortical neuron; test compound 1000 nM + paclitaxel 1 μM; mean ± SE; read-out: B: Synaptogenesis (% of control) of test compound (1000 nM) + paclitaxel (1 μM)
Method in brief: (§1)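 Cortical neurons from P0 C57BL/6J mouse pups pretreated with compound at 10 and 1000 nM before 1 μM paclitaxel. Cells fixed and immunostained for MAP2 (processes), synaptophysin (synaptic puncta) and Hoechst, then imaged by automated high-content microscopy at 10×. Neurite outgrowth and synaptogenesis scored from multiparameter image analysis.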

mice = tested on: mice; set-up: method as in PMID 28349969; settings: cited from earlier work
[2] = tested on: mouse primary DRG neurons; assay: Neurite outgrowth assay of DRG neurons (image-based HCS) against paclitaxel-induced neurotoxicity; type: cell-based; settings: for activation at 1 µM: Mus musculus, DRG neuron
Experimental: All these 19 compounds were then subjected to the neurite outgrowth assay of dorsal root ganglion (DRG) neurons paired with an image-based HCS to analyze whether they had neuroprotective potential. Quantification of neurite outgrowth under different regimens is shown in Figure 3, wherein DRG neurons incubated in 50 nM paclitaxel could cause 60% reduction in neurite outgrowth compared to the control (no drug treatment). […] Taken together, CN016 is selected as a promising lead for further development.
Primary cortical or DRG cells were fixed with 4% paraformaldehyde for 15 min following compound and paclitaxel treatment. After washing with PBS, the fixed cells were permeabilized with PBS containing 0.05% Triton X-100 for 20 min and then blocked with commercial blocking buffer (#GTX30963; GeneTex, USA) at room temperature for 1 h. Subsequently, the cortical cells were stained for the extending processes and synaptic puncta by using anti-MAP2 (#MBS502140, 1:500; Mybiosource, USA) and anti-synaptophysin (#ab32127, 1:500; Abcam, UK) overnight. DRG cells were stained for the neurite and neuron nucleus by using anti-β III tubulin (#D71G9, 1:600; Cell Signaling, USA) and anti-NeuN monoclonal antibody (#MAB377, 1:400; Millipore, USA) overnight. On the second day, the samples were washed for 30 min with wash buffer and incubated with secondary antibodies (Alexa-488, 647 1:600; Thermo Fisher, USA) and 4 μg/mL Hoechst 33258 (#94403-1ML, 1:100; Merck, USA) at room temperature for 1 h. In the initial experiments of screening the potential neuroprotective compound for CIPN, ImageXpress^Micro (IXM) high-content imaging system (Molecular Devices, USA) driven by MetaXpress software was used. Images of treated cells were automatically acquired by using a 10× objective. Twenty-one images per well were taken in each of three channels (DAPI, FITC, and Cy5) to create a whole view of the entire neural network. The integrity of the neural network was evaluated using TIF images by importing them into MetaXpress software for analysis using the module for multiparameter, such as Neurite Outgrowth, Cell Scoring, and Transfluor. Furthermore, the score of synaptogenesis was analyzed in AcuityXpress software (Molecular Devices, USA).

primary cortical neurons [3] = assay: Neurite outgrowth assay of primary cortical neurons (image-based HCS) against paclitaxel-induced neurotoxicity; type: cell-based, mouse; settings: Mus musculus, Primary cortical neuron; test compound 1000 nM + paclitaxel 1 μM; mean ± SE; read-out: D: Neurite outgrowth (% of control) of test compound (1000 nM) + paclitaxel (1 μM)
Method in brief: as §1

[4] = tested on: paclitaxel-induced neuropathy in mice; set-up: method as in PMID 28349969; settings: up to 25 mg/kg; cited from earlier work
sciatic nerve fibers = assay: Ultrastructure evaluation of the sciatic nerve (TEM); type: in vivo, mouse; settings: paclitaxel 4.5 mg/kg x 4
From the text: Sciatic nerves were isolated from mice after drug treatment and behavioral tests to examine the ultrastructure of nerve fibers. […] To evaluate the integrity of myelin, we calculated the G-ratio (axon perimeter/myelin perimeter) in different treatment groups. Because the symptoms of PIPN mostly manifest with sensory impairment,[28] we roughly classified nerve fibers into larger fibers (diameter > 5 μm) and small fibers (diameter < 5 μm) depending on the type of sensory information conveyed.[29] Large fibers with greater than 5 μm diameter carry information related to proprioception, touch, and pressure. In contrast, small fibers with less than 5 μm diameter carry information related to temperature and pain.
Sciatic nerve samples from mice from each treatment group were isolated after the last time point of mouse behavioral tests. Fixation of sciatic nerves with 4% glutaraldehyde and post fixation with 1% osmium tetroxide solution at 4 °C were performed. […] Transmission electron microscopy (H7650, Hitachi) was used to observe the ultrastructure in the cross section of the sciatic nerves.

[5] = Table 1, A: neurite outgrowth (% of control) of test compound 1000 nM + paclitaxel 50 nM, B: paclitaxel 50 nM alone, DRG neurons, read-out: Neuroprotection rate = (A-B)±S.E.M [%]
[6] = Table S2, test compound 1000 nM + paclitaxel 50 nM minus paclitaxel 50 nM, read-out: Neuroprotection rate = (A-B) ± S.E.M [%]
[7] = supplementary CSV, test compound 1000 nM, read-out: A-B (A: neurite outgrowth (% of control) of test compound (1000 nM) + paclitaxel (50 nM), B: of paclitaxel (50 nM))

Compound	activation at 1 µM [2, 5]	activation at 1 µM [2, 6]	activation at 1 µM [2, 7]	other results
Nc1cc(N2CCCCC2)nc(N)[n+]1[O-] [Minoxidil, reference compound]	15 ± 1.41%			activity at 1 µM (primary cortical neurons [1]): 58 ± 8%; dose causing hypotension (mice): 50 mg/kg; dose causing tachycardia (mice): 25 mg/kg; activity at 1 µM (primary cortical neurons [3]): 66 ± 3%; protective effect on paclitaxel-induced neuropathy in behavior tests [4]: no protective effect
CC(=O)O[C@H]1C(=O)[C@@]2(C)[C@H]([C@H](OC(=O)c3ccccc3)[C@]3(O)C[C@H](OC(=O)[C@H](O)[C@@H](NC(=O)c4ccccc4)c4ccccc4)C(C)=C1C3(C)C)[C@]1(OC(C)=O)CO[C@@H]1C[C@@H]2O [paclitaxel, Paclitaxel]				reduction in neurite outgrowth compared to the control ([2]; 50 nM paclitaxel, DRG neurons): 60%; fiber loss (myelinated fiber density) (sciatic nerve fibers): 25%
NCCCn1cc(CNc2nc(NC3CCN(C(=O)CCNC(=O)C4(O)CC(O)C(O)C(O)C4)CC3)cc(N3CCOCC3)n2)nn1 (centres unmarked) [CN006, 1,3,4,5-Tetrahydroxy-cyclohexanecarboxylic Acid {3-[4-(2-{[1-(3-Amino-propyl)-1H-[1,2,3]triazol-4-ylmethyl]-amino}-6-morpholin-4-yl-pyrimidin-4-ylamino)-piperidin-1-yl]-3-oxo-propyl}-amide Hydrochloride Salt]		4 ± 1.44%	4%	
COC(=O)CCN1CCC(Nc2cc(N3CCOCC3)nc(NCCCCCCO)n2)CC1 [CN017, Methyl 3-(4-((2-((6-Hydroxyhexyl)amino)-6-morpholinopyrimidin-4-yl)amino)piperidin-1-yl)propanoate]		1 ± 0.51%	1%	protective efficacy against paclitaxel-induced neurotoxicity (in words) ([2]; pretreated, + 50 nM paclitaxel, DRG neurons): inactive
O=P(O)(O)CCN1CCC(Nc2cc(N3CCS(=O)(=O)CC3)nc(NCc3cn(CCCO)nn3)n2)CC1 [CN024, {2-[4-(6-(1,1-Dioxo-1l6-thiomorpholin-4-yl)-2-{[1-(3-hydroxy-propyl)-1H-[1,2,3]triazol-4-ylmethyl]-amino}-pyrimidin-4-ylamino)-piperidin-1-yl]-ethyl}-phosphonic Acid Hydrobromide Salt]	7 ± 0.84%		7%	
OCCCn1cc(CNc2nc(NC3CCN(Cc4ccccc4)CC3)cc(N3CCOCC3)n2)nn1 [CN004, 3-(4-{[4-(1-Benzyl-piperidin-4-ylamino)-6-morpholin-4-yl-pyrimidin-2-ylamino]-methyl}-[1,2,3]triazol-1-yl)-propan-1-ol]	-1 ± 3.2%	1 ± 3.2%	1%	
COCCCn1cc(CNc2nc(NC3CCN(CCC(=O)OC)CC3)cc(N3CCOCC3)n2)nn1 [CN010, 3-[4-(2-{[1-(3-Methoxy-propyl)-1H-[1,2,3]triazol-4-ylmethyl]-amino}-6-morpholin-4-yl-pyrimidin-4-ylamino)-piperidin-1-yl]-propionic Acid Methyl Ester]		5 ± 3.06%	5%	
O=P(O)(O)CCN1CCC(Nc2cc(N3CCOCC3)nc(NCc3cn(CCCCO)nn3)n2)CC1 [CN021, {2-[4-(2-{[1-(4-Hydroxy-butyl)-1H-[1,2,3]triazol-4-ylmethyl]-amino}-6-morpholin-4-yl-pyrimidin-4-ylamino)-piperidin-1-yl]-ethyl}-phosphonic Acid Hydrobromide Salt]	8 to 11%		11%	
O=C(CCNC(=O)C1(O)CC(O)C(O)C(O)C1)N1CCC(Nc2cc(N3CCOCC3)nc(NCc3cn(CCCNCCO)nn3)n2)CC1 (centres unmarked) [CN007, 1,3,4,5-Tetrahydroxy-cyclohexanecarboxylic Acid (3-{4-[2-({1-[3-(2-Hydroxy-ethylamino)-propyl]-1H-[1,2,3]triazol-4-ylmethyl}-amino)-6-morpholin-4-yl-pyrimidin-4-ylamino]-piperidin-1-yl}-3-oxo-propyl)-amide Hydrochloride Salt]		7 ± 1.05%	7%	
NCCOCCn1cc(CNc2nc(NC3CCN(C(=O)CCNC(=O)C4(O)CC(O)C(O)C(O)C4)CC3)cc(N3CCOCC3)n2)nn1 (centres unmarked) [CN008, 1,3,4,5-Tetrahydroxy-cyclohexanecarboxylic Acid (3-{4-[2-({1-[2-(2-Amino-ethoxy)-ethyl]-1H-[1,2,3]triazol-4-ylmethyl}-amino)-6-morpholin-4-yl-pyrimidin-4-ylamino]-piperidin-1-yl}-3-oxo-propyl)-amide Hydrochloride Salt]		4 ± 1.44%	4%	
COC(=O)CCOCCCn1cc(CNc2nc(NC3CCN(Cc4ccccc4)CC3)cc(N3CCOCC3)n2)nn1 [CN002, 3-[3-(4-{[4-(1-Benzyl-piperidin-4-ylamino)-6-morpholin-4-yl-pyrimidin-2-ylamino]-methyl}-[1,2,3]triazol-1-yl)-propoxy]-propionic Acid Methyl Ester]		-4 ± 0.81%	-4%	
COCCCn1cc(CNc2nc(NC3CCN(CCP(=O)(O)O)CC3)cc(N3CCOCC3)n2)nn1 [CN028, {2-[4-(2-{[1-(3-Methoxy-propyl)-1H-[1,2,3]triazol-4-ylmethyl]-amino}-6-morpholin-4-yl-pyrimidin-4-ylamino)-piperidin-1-yl]-ethyl}-phosphonic Acid Hydrobromide Salt]	-2%		-2%	
CC(O)CCn1cc(CNc2nc(NC3CCN(CCP(=O)(O)O)CC3)cc(N3CCOCC3)n2)nn1 (centres unmarked) [CN026, {2-[4-(2-{[1-(3-Hydroxy-butyl)-1H-[1,2,3]triazol-4-ylmethyl]-amino}-6-morpholin-4-yl-pyrimidin-4-ylamino)-piperidin-1-yl]-ethyl}-phosphonic Acid Hydrobromide Salt]	11 ± 1.48%		11%	
